Assay results reported in ChEMBL document CHEMBL1149803, “Synthesis and anticonvulsant activity of some novel 3-aryl amino/amino-4-aryl-5-imino-Delta2-1,2,4-thiadiazoline” (Eur J Med Chem, 2008).
Calls of active or inactive are those of the source. The calls are words filed in the database; no cut-off is given here.

Experiments:
[1] = system: Mus musculus; assay: Anticonvulsant activity in CF1 albino mouse assessed as prevention of subcutaneous pentylenetetrazole-induced seizure at 300 mg/kg, ip after 0.5 hrs; assay type: functional, organism-based; design: dose 300 mg/kg
[2] = system: Mus musculus; assay: Anticonvulsant activity in CF1 albino mouse assessed as prevention of subcutaneous pentylenetetrazole-induced seizure at 300 mg/kg, ip after 4 hrs; assay type: functional, organism-based; design: dose 300 mg/kg
[3] = system: Mus musculus; assay: Anticonvulsant activity in CF1 albino mouse assessed as prevention of maximal electroshock-induced seizures at 300 mg/kg, ip after 4 hrs; assay type: functional, organism-based; design: dose 300 mg/kg
[4] = system: Mus musculus; assay: Anticonvulsant activity in ip dosed CF1 albino mouse assessed as prevention of maximal electroshock-induced seizures after 0.5 hrs; assay type: functional
[5] = system: Mus musculus; assay: Anticonvulsant activity in ip dosed CF1 albino mouse assessed as prevention of subcutaneous pentylenetetrazole-induced seizure after 0.5 hrs; assay type: functional
[6] = system: Mus musculus; assay: Neurotoxicity in ip dosed CF1 albino mouse after 4 hrs by rotarod test; assay type: toxicity, organism-based; settings: in vivo
[7] = system: Mus musculus; assay: Neurotoxicity in ip dosed CF1 albino mouse after 0.5 hrs by rotarod test; assay type: toxicity, organism-based; settings: in vivo
[8] = system: Mus musculus; assay: Anticonvulsant activity in ip dosed CF1 albino mouse assessed as prevention of maximal electroshock-induced seizures after 4 hrs; assay type: functional
[9] = system: Rattus norvegicus; assay: Sedative-hypnotic effect in Sprague-Dawley albino rat assessed as increase in sleep time at 100 mg/kg, ip by phenobarbitone-induced hypnosis test; assay type: functional; settings: route intraperitoneal
[10] = system: Mus musculus; assay: Anticonvulsant activity in CF1 albino mouse assessed as prevention of maximal electroshock-induced seizures at 300 mg/kg, ip after 0.5 hrs; assay type: functional, organism-based; design: dose 300 mg/kg

For `COc1ccc(-n2c(N)nsc2=N)cc1`, the Activity [1] was “inactive”, the Activity [2] was “inactive” and the Activity [3] was “inactive”. For the same compound, the Activity [4] was 300 mg/kg.

`NC(=O)N1c2ccccc2C=Cc2ccccc21` [CARBAMAZEPINE] was tested, and the Activity [5] was 100 mg/kg, the Activity [6] was 300 mg/kg and the Activity [2] was “inactive”. For the same compound, the Activity [3] was “inactive”, the Activity [7] was 100 mg/kg and the Activity [4] was 30 mg/kg.

With `N=c1snc(Nc2cccnc2)n1-c1cccnc1` the Activity [1] was “inactive”, the Activity [2] was “inactive” and the Activity [3] was “inactive”. It also gave an Activity [7] of 100 mg/kg and an Activity [4] of 300 mg/kg.

With `N=c1snc(Nc2ccncc2)n1-c1ccncc1` the Activity [1] was “inactive”, the Activity [2] was “inactive” and the Activity [3] was “inactive”. For the same compound, the Activity [7] was 100 mg/kg and the Activity [4] was 300 mg/kg.

`N=c1snc(Nc2cccc3ccccc23)n1-c1cccc2ccccc12` was tested, and the Activity [1] was “inactive”, the Activity [2] was “inactive” and the Activity [8] was 300 mg/kg. The Activity [7] was 300 mg/kg, the Activity [9] was 16.4% and the Activity [4] was 30 mg/kg.

With `N=c1snc(N)n1-c1cccc2ccccc12` the Activity [6] was 300 mg/kg, the Activity [1] was “inactive” and the Activity [2] was “inactive”. For the same compound, the Activity [3] was “inactive”, the Activity [7] was 300 mg/kg and the Activity [9] was 8.8%. It also gave an Activity [4] of 30 mg/kg.

With `N=c1snc(N)n1-c1ccc(F)cc1` the Activity [1] was “inactive”, the Activity [2] was “inactive” and the Activity [8] was 300 mg/kg. For the same compound, the Activity [7] was 100 mg/kg, the Activity [9] was 20.2% and the Activity [4] was 100 mg/kg.

For `N=c1snc(N)n1-c1ccncc1`, the Activity [1] was “inactive”, the Activity [2] was “inactive” and the Activity [3] was “inactive”. It also gave an Activity [7] of 100 mg/kg and an Activity [4] of 300 mg/kg.

With `O=C1NC(=O)C(c2ccccc2)(c2ccccc2)N1` [PHENYTOIN] the Activity [6] was 100 mg/kg, the Activity [1] was “inactive” and the Activity [2] was “inactive”. It also gave an Activity [8] of 100 mg/kg, an Activity [7] of 100 mg/kg and an Activity [4] of 30 mg/kg.

In the case of `N=c1snc(N)n1-c1ccc(Br)cc1`, the Activity [1] is reported as “inactive”, the Activity [2] is reported as “inactive” and the Activity [3] is reported as “inactive”. The Activity [4] was 300 mg/kg.

`N=c1snc(Nc2ccc(F)cc2)n1-c1ccc(F)cc1` was tested, and the Activity [1] was “inactive”, the Activity [2] was “inactive” and the Activity [8] was 300 mg/kg. It also gave an Activity [7] of 300 mg/kg, an Activity [9] of 5.1% and an Activity [4] of 100 mg/kg.

For `N=c1snc(Nc2ncccn2)n1-c1ncccn1`, the Activity [1] was “inactive”, the Activity [2] was “inactive” and the Activity [3] was “inactive”. For the same compound, the Activity [7] was 100 mg/kg, the Activity [9] was 11.4% and the Activity [4] was 100 mg/kg.

For `N=c1snc(N)n1-c1ccc(Cl)cc1`, the Activity [1] was “inactive”, the Activity [2] was “inactive” and the Activity [3] was “inactive”. It also gave an Activity [7] of 100 mg/kg and an Activity [4] of 300 mg/kg.

For `N=c1snc(Nc2ccccn2)n1-c1ccccn1`, the Activity [6] was 300 mg/kg, the Activity [1] was “inactive” and the Activity [2] was “inactive”. For the same compound, the Activity [3] was “inactive”, the Activity [7] was 100 mg/kg and the Activity [4] was 300 mg/kg.

In the case of `CCOc1ccc(-n2c(N)nsc2=N)cc1`, the Activity [1] is reported as “inactive”, the Activity [2] is reported as “inactive” and the Activity [3] is reported as “inactive”. For the same compound, the Activity [7] was 100 mg/kg, the Activity [9] was 46.8% and the Activity [4] was 100 mg/kg.

`N=c1snc(N)n1-c1ccccn1` was tested, and the Activity [1] was “inactive”, the Activity [2] was “inactive” and the Activity [3] was “inactive”. It also gave an Activity [7] of 100 mg/kg and an Activity [4] of 300 mg/kg.

In the case of `N=c1snc(N)n1-c1ncccn1`, the Activity [1] is reported as “inactive”, the Activity [2] is reported as “inactive” and the Activity [3] is reported as “inactive”. The Activity [10] was “inactive” and the Activity [7] was 100 mg/kg.

With `CCOc1ccc(Nc2nsc(=N)n2-c2ccc(OCC)cc2)cc1` the Activity [5] was 300 mg/kg, the Activity [2] was “inactive” and the Activity [8] was 300 mg/kg. For the same compound, the Activity [7] was 300 mg/kg, the Activity [9] was 55.6% and the Activity [4] was 30 mg/kg.

`N=c1snc(N)n1-c1cccnc1` was tested, and the Activity [1] was “inactive”, the Activity [2] was “inactive” and the Activity [3] was “inactive”. The Activity [7] was 100 mg/kg and the Activity [4] was 300 mg/kg.
